Test results reported in publication PMC4464910 (Pharmacological research : the official journal of the …, 2015).

Experiments:
mechanical hyperalgesia = experiment: carrageenan-induced mechanical hyperalgesia; type: in vivo, CD1 mice; conditions: mice, oral, time point 4 hours
[1] = test system: carrageenan-induced edema; experiment: carrageenan-induced paw edema; type: in vivo, CD1 mice; conditions: mice, 10 mg kg^−1 oral, P<.001
mechanical allodynia = type: in vivo, Sprague-Dawley rats; conditions: for ED50 on mechanical allodynia: i.p., time point 1 hour
heat hyperalgesia = experiment: carrageenan-induced heat hyperalgesia; type: in vivo, CD1 mice; conditions: mice, oral, time point 4 hours
2-AG hydrolysis = 2-AG hydrolysis colorimetric assay in rat brain microsomes; type: biochemical; conditions: read-out: 2-AG hydrolysis IC50, n=3

| IC50 (2-AG hydrolysis) [µM] | SMILES | ED50 on mechanical hyperalgesia (mechanical hyperalgesia) [mg/kg] | suppression of edema 24 hours after application [1] | ED50 on mechanical allodynia (mechanical allodynia; diabetic rats) [mg/kg] | ED50 on heat hyperalgesia (heat hyperalgesia) [mg/kg] | effect on allodynia at 0.3 mg kg^−1 (mechanical allodynia; neuropathic rats, 0.3 mg kg^−1 dose) | effect on allodynia compared with TPPU and URB937 at the same dose (mechanical allodynia; diabetic rats, 3 mg kg^−1 i.p.) |
| --- | --- | --- | --- | --- | --- | --- | --- |
| > 100 | CCC(=O)N1CCC(NC(=O)Nc2ccc(OC(F)(F)F)cc2)CC1 [TPPU] | 1 | still statistically detectable | 0.1 | 0.5 | – | – |
| > 100 | NC(=O)c1cccc(-c2cc(OC(=O)NC3CCCCC3)ccc2O)c1 [URB937] | – | – | 0.3 | 0.2 | attenuated allodynia | – |
| – | O=C(Nc1cccc(OC(F)(F)F)c1)N[C@H]1CC[C@H](Oc2ccc(C(=O)O)cc2)CC1 [t-TUCB, trans-4-[4-(3-trifluoromethoxyphenyl-l-ureido)-cyclohexyloxy]-benzoic acid] | – | – | – | – | – | similar |
